Reference: the supplement of paper PMC10883282
± gives the standard deviation of the averaged measurements.

Tested on: SK-LMS-1
Experiment: relative viability vs DMSO control (72 h) (fraction); higher = more viable cells
In short: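 ATPLite readings, expressed as percent growth and averaged over up to triplicate wells, provided relative viability. Before reading, sarcoma cell lines seeded in 384-well plates to reach 80–90% confluence received 2.5 µl of serially diluted compound after 24 h, from source plates of 10 mM to 0.0002 mM. Plates were held 72 h at 37 °C, 5% CO2, with 0.1% DMSO as vehicle and a 5 µM positive control. The data were rescaled to 1 for full and 0 for none.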

SMILES | relative viability (0.00017 µM) | relative viability (0.00051 µM) | relative viability (0.00152 µM) | relative viability (0.00457 µM) | relative viability (0.01372 µM) | relative viability (0.04115 µM) | relative viability (0.1235 µM) | relative viability (0.3704 µM) | relative viability (1.111 µM) | relative viability (3.333 µM) | relative viability (10 µM) | relative viability (2 pM) | relative viability (5 pM) | relative viability (15 pM) | relative viability (50 pM) | relative viability (0.00014 µM) | relative viability (0.00041 µM) | relative viability (0.0012 µM) | relative viability (0.0037 µM) | relative viability (0.011 µM) | relative viability (200 fM) | relative viability (600 fM)
Nc1cc(C(F)(F)F)c(-c2cc(N3CCOCC3)nc(N3CCOCC3)n2)cn1 [Buparlisib] | 1.02 ± 0.031 | 0.9986 ± 0.0078 | 1.01 ± 0.035 | 1.02 ± 0.013 | 1.01 ± 0.038 | 0.9304 ± 0.0067 | 0.825 ± 0.018 | 0.686 ± 0.015 | 0.3771 ± 0.0013 | 0.148 ± 0.0057 | 0.102 ± 0.0085 |  |  |  |  |  |  |  |  |  |  | 
Cc1cnc(Nc2ccc(OCCN3CCCC3)cc2)nc1Nc1cccc(S(=O)(=O)NC(C)(C)C)c1 [Fedratinib] | 1.01 ± 0.035 | 1 ± 0.068 | 1.04 ± 0.041 | 1.08 ± 0.062 | 1.04 ± 0.012 | 1.01 ± 0.042 | 0.99 ± 0.018 | 0.904 ± 0.034 | 0.7315 ± 0.0026 | 0.407 ± 0.011 | 0.0111 ± 0.0012 |  |  |  |  |  |  |  |  |  |  | 
COc1cc2c(Oc3ccc4[nH]c(C)cc4c3F)ncnc2cc1OCCCN1CCCC1 [Cediranib] | 1.01 ± 0.011 | 1.02 ± 0.028 | 1.02 ± 0.038 | 1.03 ± 0.052 | 0.989 ± 0.025 | 1.02 ± 0.042 | 0.98 ± 0.017 | 0.977 ± 0.025 | 0.925 ± 0.013 | 0.911 ± 0.029 | 0.462 ± 0.066 |  |  |  |  |  |  |  |  |  |  | 
CC(=O)Nc1cccc(-n2c(=O)n(C3CC3)c(=O)c3c(Nc4ccc(I)cc4F)n(C)c(=O)c(C)c32)c1 [Trametinib] | 1.01 ± 0.027 | 1.02 ± 0.06 | 1.06 ± 0.03 | 0.905 ± 0.034 | 0.575 ± 0.025 | 0.399 ± 0.01 | 0.327 ± 0.0053 | 0.27 ± 0.0086 | 0.25 ± 0.0039 | 0.225 ± 0.0081 | 0.193 ± 0.0022 |  |  |  |  |  |  |  |  |  |  | 
CC(C)N1CCN(Cc2cnc(-c3cc(-c4cccc5[nH]ccc45)cc4[nH]ncc34)o2)CC1 [Nemiralisib] | 1.05 ± 0.047 | 1.02 ± 0.033 | 1.06 ± 0.038 | 1.04 ± 0.011 | 1.04 ± 0.047 | 1.05 ± 0.04 | 1.042 ± 0.0068 | 0.994 ± 0.033 | 0.928 ± 0.012 | 0.821 ± 0.029 | 0.658 ± 0.041 |  |  |  |  |  |  |  |  |  |  | 
Cc1cc(Nc2ncnc3ccc(NC4=NC(C)(C)CO4)cc23)ccc1Oc1ccn2ncnc2c1 [Tucatinib] | 1.1 ± 0.022 | 1.09 ± 0.06 | 1.08 ± 0.041 | 1.09 ± 0.058 | 1.08 ± 0.047 | 1.08 ± 0.034 | 1.08 ± 0.033 | 1.09 ± 0.055 | 1.09 ± 0.045 | 1.05 ± 0.025 | 0.7801 ± 0.0053 |  |  |  |  |  |  |  |  |  |  | 
COc1cc2c(cc1O)CCN[C@]21CS[C@@H]2c3c(OC(C)=O)c(C)c4c(c3[C@H](COC1=O)N1[C@@H]2[C@H]2c3c(cc(C)c(OC)c3O)C[C@@H]([C@@H]1O)N2C)OCO4 [Trabectedin] |  |  |  |  |  |  |  |  |  |  |  | 1.06 ± 0.08 | 1.04 ± 0.026 | 1.03 ± 0.043 | 1.06 ± 0.045 | 1.07 ± 0.052 | 0.848 ± 0.04 | 0.255 ± 0.014 | 0.332 ± 0.006 | 0.35 ± 0.014 | 1.03 ± 0.076 | 1.06 ± 0.048
C[C@@H]1COCCN1c1cc(-c2ccnn2C)c2ccnc(-c3ccn[nH]3)c2n1 | 0.9973 ± 0.0066 | 0.992 ± 0.064 | 0.989 ± 0.033 | 1 ± 0.051 | 1 ± 0.024 | 0.928 ± 0.056 | 0.785 ± 0.035 | 0.571 ± 0.016 | 0.371 ± 0.025 | 0.271 ± 0.0038 | 0.234 ± 0.0024 |  |  |  |  |  |  |  |  |  |  | 
Cc1cc(C)c(/C=C2\C(=O)Nc3ccccc32)[nH]1 [Semaxanib] | 0.927 ± 0.045 | 0.907 ± 0.044 | 0.897 ± 0.025 | 0.878 ± 0.033 | 0.897 ± 0.053 | 0.874 ± 0.039 | 0.872 ± 0.02 | 0.894 ± 0.018 | 0.905 ± 0.027 | 0.871 ± 0.033 | 0.811 ± 0.013 |  |  |  |  |  |  |  |  |  |  | 
